Assays:
[1] = test system: Lactobacillus salivarius—Ls-33 (LS-30); experiment: Growth and lactic acid producing activity of Lactobacillus salivarius Ls-33 in MRS broth; assay type: cell-based; conditions: for Lactic Acid % / pH: additive at 0.1% in MRS; for NTU (Turbidity): additive at 0.1% in MRS (polysorbate 80 control 1.0 g per liter)
From the text: (§1) The prebiotics of this invention can be in the same capsule or formulation as the probiotics, or in a separate dosage form. The prebiotics should be in a separate dosage form if they are naturally occurring, as opposed to adsorbed. The prebiotics of this invention may be taken with carbohydrate or fiber to increase their effectiveness. Prebiotic formulations are often probiotic strain dependent. Some Lactobacillus strains, for example, respond best to a form of lecithin derived from sunflowers (Sunflower Lecithin) while others show no preference to lecithin type and respond equally well to soy lecithin. Other strains show a synergistic response when lecithin is used together with oleic acid. […] Each flask was tempered to 37° C. and aseptically inoculated with 0.14 gm of the individual probiotic strains (in Examples 5 to 10 below) to be tested. At specified time intervals, a 30 ml sample from each flask was aseptically transferred into a HACH […] Turbidimeter sample cell. The turbidity of each sample was read and the results were reported in NTU's. The same 30 ml sample used for the turbidity reading was transferred into a 250 ml glass beaker, and the pH was recorded. The sample was titrated using 0.1N NaOH to an endpoint of pH 6.8, and the quantity of NaOH used was recorded. The % Lactic Acid was calculated using the following formula: % Lactic Acid=((mls of 0.1N NaOH)×(0.1N)×(90 gm/mole)×(1 L/1000 ml))×100 mls of sample % Lactic Acid=(mls of 0.1N NaOH)×(0.9) (Results reported at 12 hours and 23 hours like: 12/23 in Table V below)

[2] = test system: L. acidophilus NCFM (LA-1); experiment: Growth (turbidity) and lactic acid producing activity of L. acidophilus NCFM in MRS broth with polysorbate 80 or substitute; assay type: cell-based, Lactobacillus acidophilus; conditions: for Lactic Acid % / pH: additive at 0.1% in MRS; for NTU (Turbidity): additive at 0.1% in MRS (polysorbate 80 control 1.0 g per liter)
Procedure: The prebiotics of this invention can be in the same capsule or formulation as the probiotics, or in a separate dosage form. The prebiotics should be in a separate dosage form if they are naturally occurring, as opposed to adsorbed. […] Prebiotic formulations are often probiotic strain dependent. […] At specified time intervals, a 30 ml sample from each flask was aseptically transferred into a HACH […] Turbidimeter sample cell. The turbidity of each sample was read and the results were reported in NTU's. The same 30 ml sample used for the turbidity reading was transferred into a 250 ml glass beaker, and the pH was recorded. The sample was titrated using 0.1N NaOH to an endpoint of pH 6.8, and the quantity of NaOH used was recorded. The % Lactic Acid was calculated using the following formula: % Lactic Acid=((mls of 0.1N NaOH)×(0.1N)×(90 gm/mole)×(1 L/1000 ml))×100 mls of sample % Lactic Acid=(mls of 0.1N NaOH)×(0.9) (Results reported at 12 hours and 23 hours like: 12/23 in Table I below)

[3] = test system: THERALAC® Lot # 32310A, a commercial probiotic product; experiment: Growth of the commercial probiotic […] in MRS broth; assay type: cell-based; conditions: for Lactic Acid % / pH: additive at 0.1% in MRS; for NTU (Turbidity): additive at 0.1% in MRS (polysorbate 80 control 1.0 g per liter), THERALAC inoculated at 0.1%
Procedure: MRS broth was prepared with (for controls) and without (for tests) polysorbate 80 and filled into 1 liter screw cap flasks at 500 ml each and autoclaved at 121° C. for 30 minutes. Various lecithin and/or oleic acid additives, or nothing (negative control), was added to the tests flasks prior to autoclaving. The flasks were then tempered to 37° C. in a water bath and inoculated at 0.1% with […]® Lot # 32310A, a commercial probiotic product (Master Supplements, Inc., Victoria, Minn.). Capsules of […]® were opened and the contents mixed aseptically to serve as the inoculum source. At an inoculation rate of 0.1%, approximately 80 million CFU was added per ml of MRS media. […]® contains (formulation strength) the following probiotic strains at the approximate CFU values listed per gram: Lactobacillus acidophilus NCFM (LA-1): 30 billion CFU Bifidobacterium lactis B1-04 (BL-34): 30 billion CFU Lactobacillus paracasei Lpc-37 (F-19): 14 billion CFU Lactobacillus rhamnosus Lr-32 (LR-44): 6 billion CFU Bifidobacterium lactis Bi-07: 8 billion CFU Turbidity, pH and titrations (made with 0.1 N NaOH and reported as % lactic acid) were made at various times up to 23 hours. The results are presented below in Table VI for the 12 and 23-hour analyses.

[4] = test system: Lactobacillus paracasei Lpc-37 (F-19); experiment: Growth and lactic acid producing activity of Lactobacillus paracasei Lpc-37 in MRS broth; assay type: cell-based; conditions: for Lactic Acid % / pH: additive at 0.1% in MRS; for NTU (Turbidity): additive at 0.1% in MRS (polysorbate 80 control 1.0 g per liter)
From the text: as §1, with “III” for “V”

[5] = test system: Lactobacillus rhamnosus—Lr-32 (LR-44); experiment: Growth and lactic acid producing activity of Lactobacillus rhamnosus Lr-32 in MRS broth; assay type: cell-based; conditions: for Lactic Acid % / pH: additive at 0.1% in MRS; for NTU (Turbidity): additive at 0.1% in MRS (polysorbate 80 control 1.0 g per liter)
From the text: as §1, with “IV” for “V”

[6] = test system: Bifidobacterium lactic Bl-04 (BL-34); experiment: Growth and lactic acid producing activity of Bifidobacterium lactis Bl-04 in MRS broth; assay type: cell-based; conditions: for Lactic Acid % / pH: additive at 0.1% in MRS; for NTU (Turbidity): additive at 0.1% in MRS (polysorbate 80 control 1.0 g per liter)
From the text: as §1, with “II” for “V”

[7] = at the concentrations studied (0.1% + 0.1%)

CCCCCCCC/C=C\CCCCCCCC(=O)O [Oleic Acid]
Replacement of polysorbate 80 (growth and activity), conclusion in words ([1]; 0.1% inclusion rate): not as good a replacement
Lactic Acid % ([1]; 12 hours): 0.073%
pH ([1]; 12 hours): 4.4
pH ([1]; 23 hours): 3.8
Replacement of polysorbate 80 (growth and activity), conclusion in words ([2]; 0.1% inclusion rate): somewhat effective
Replacement of polysorbate 80 (growth and activity), conclusion in words ([3]; 0.1% inclusion rate): acceptable replacement value for polysorbate 80
Replacement of polysorbate 80 (growth and activity), conclusion in words ([4]; 0.1% inclusion rate): not as effective a replacement for polysorbate 80 as sunflower lecithin
Synergy with sunflower lecithin [4, 7]: does not appear to be synergistic
Replacement of polysorbate 80 (growth and activity), conclusion in words ([5]; 0.1% inclusion rate): not as good a replacement for polysorbate 80 as sunflower lecithin
Lactic Acid % ([5]; 12 hours): 0.072%
pH ([5]; 12 hours): 6.2
pH ([5]; 23 hours): 4.1
Synergy with sunflower lecithin [5, 7]: not synergistic

Polysorbate 80
Lactic Acid % ([1]; 12 hours): 1.42%
pH ([1]; 12 hours): 3.8
NTU (Turbidity) ([1]; 12 hours): 3426 NTU
Lactic Acid % ([1]; 23 hours): 1.68%
pH ([1]; 23 hours): 3.7
NTU (Turbidity) ([1]; 23 hours): 3931 NTU
Lactic Acid % ([2]; 12 hours): 1.09%
pH ([2]; 12 hours): 4.2
NTU (Turbidity) ([2]; 12 hours): 1855 NTU
Lactic Acid % ([2]; 23 hours): 1.27%
pH ([2]; 23 hours): 4.1
NTU (Turbidity) ([2]; 23 hours): 2038 NTU
Lactic Acid % ([3]; 12 hours): 1.42%
pH ([3]; 12 hours): 3.9
NTU (Turbidity) ([3]; 12 hours): 3311 NTU
Lactic Acid % ([3]; 23 hours): 1.84%
pH ([3]; 23 hours): 3.7
NTU (Turbidity) ([3]; 23 hours): 3694 NTU
Lactic Acid % ([6]; 12 hours): 0.57%
pH ([6]; 12 hours): 4.8
NTU (Turbidity) ([6]; 12 hours): 922 NTU
Lactic Acid % ([6]; 23 hours): 0.84%
pH ([6]; 23 hours): 4.5
NTU (Turbidity) ([6]; 23 hours): 1434 NTU
Lactic Acid % ([4]; 12 hours): 0.99%
pH ([4]; 12 hours): 4.2
NTU (Turbidity) ([4]; 12 hours): 1664 NTU
Lactic Acid % ([4]; 23 hours): 1.39%
pH ([4]; 23 hours): 3.9
NTU (Turbidity) ([4]; 23 hours): 2824 NTU
Lactic Acid % ([5]; 12 hours): 1.12%
pH ([5]; 12 hours): 4.0
NTU (Turbidity) ([5]; 12 hours): 2804 NTU
Lactic Acid % ([5]; 23 hours): 1.67%
pH ([5]; 23 hours): 3.7
NTU (Turbidity) ([5]; 23 hours): 3776 NTU
